Measurements from patent US20080096950A1, “Compounds Useful In Therapy” (priority 2006, published 2008).

Molecular target: T1, Progesterone receptor (PR) (Homo sapiens, UniProt P06401)
T1 construct: endogenous in cells; host or cells: T47D human breast mammary carcinoma cells
T1 sequence (P06401 1-933): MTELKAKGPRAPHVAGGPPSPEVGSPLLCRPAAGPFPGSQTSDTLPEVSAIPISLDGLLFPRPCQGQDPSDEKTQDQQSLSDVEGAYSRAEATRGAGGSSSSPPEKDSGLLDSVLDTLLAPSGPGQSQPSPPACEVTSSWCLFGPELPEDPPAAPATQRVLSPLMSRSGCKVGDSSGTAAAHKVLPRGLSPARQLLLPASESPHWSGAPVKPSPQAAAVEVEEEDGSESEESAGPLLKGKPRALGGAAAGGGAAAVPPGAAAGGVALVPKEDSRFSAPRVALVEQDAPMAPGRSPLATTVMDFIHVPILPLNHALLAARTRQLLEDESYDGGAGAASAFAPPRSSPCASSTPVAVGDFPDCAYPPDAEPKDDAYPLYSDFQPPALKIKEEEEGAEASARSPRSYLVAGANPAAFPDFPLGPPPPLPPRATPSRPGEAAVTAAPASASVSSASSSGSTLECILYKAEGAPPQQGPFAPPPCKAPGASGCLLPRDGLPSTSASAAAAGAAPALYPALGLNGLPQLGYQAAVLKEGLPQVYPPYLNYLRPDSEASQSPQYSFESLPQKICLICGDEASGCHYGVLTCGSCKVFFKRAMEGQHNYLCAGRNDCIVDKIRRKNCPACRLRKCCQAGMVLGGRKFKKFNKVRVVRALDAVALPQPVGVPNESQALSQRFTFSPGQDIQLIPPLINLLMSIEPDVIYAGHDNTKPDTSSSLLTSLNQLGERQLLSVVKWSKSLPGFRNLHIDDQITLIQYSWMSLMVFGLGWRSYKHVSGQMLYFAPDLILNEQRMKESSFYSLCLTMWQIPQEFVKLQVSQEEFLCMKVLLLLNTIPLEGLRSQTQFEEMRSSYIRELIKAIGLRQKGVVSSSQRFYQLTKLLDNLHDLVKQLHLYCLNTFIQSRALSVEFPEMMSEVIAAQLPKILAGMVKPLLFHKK
Assay: In vitro functional assay for progesterone receptor (PR) antagonists: inhibition of progesterone-induced alkaline phosphatase expression in T47D cells
Assay type: cell-based
Details: antagonist format; T47D human mammary carcinoma cells; alkaline phosphatase inhibition vs 5 nM progesterone
From the text: 1.0 In Vitro Functional Assay for Progesterone Receptor (PR) Antagonists, Agonists and Modulators
The assay for PR antagonism takes advantage of the extensively reported modulation of alkaline phosphatase (AP) expression in human breast T47D mammary carcinoma cells {Beck, et al., D. P. (1993). The progesterone antagonist RU486 acquires agonist activity upon stimulation of cAMP signalling pathways. Proc Natl Acad Sci U S A 90, 4441-4445; Fensome, et al. (2002). New progesterone receptor antagonists: 3,3-disubstituted-5-aryloxindoles. Bioorg. Med. Chem. Lett., 12, 3487-3490; Zhang et al., (2002a). 6-Aryl-1,4-dihydro-benzo d 1,3 oxazin-2-ones: a novel class of potent, selective, and orally active nonsteroidal progesterone receptor antagonists. J. Med. Chem., 45, 4379-4382; Zhang et al., (2003). Novel 6-aryl-1,4-dihydrobenzo d oxazine-2-thiones as potent, selective, and orally active nonsteroidal progesterone receptor agonists. Bioorg. Med. Chem. Lett., 13, 1313-1316; Zhang et al., (2002b). Potent nonsteroidal progesterone receptor agonists: synthesis and SAR study of 6-aryl benzoxazines. Bioorg. Med. Chem. Lett., 12, 787-790; Zhang, Z. et al., (2000). In vitro characterization of trimegestone: a new potent and selective progestin. Steroids 65, 637-643.}. […] In the absence of progesterone any agonist activity is also observed as an induction of AP activity. By running the assay in two formats (± progesterone (P4)), compounds behaving as PR antagonists, agonists, partial agonists or modulators with mixed agonist/antagonist activity can be identified.
Briefly, T47D cells are grown by propagating in DMEM with phenol red+10% FCS+2 mM Glutamine at 37° C./5% CO2. At 70-80% confluence, the media is exchanged for phenol red free DMEM+5% CS-FCS (Assay media). Cells are incubated overnight in assay media then harvested and frozen in assay media containing 10% DMSO at 1.5e7 cells/mL in 2 mL aliquots using a Planer and immediately stored in liquid nitrogen. V1als are removed from liquid nitrogen storage and immediately thawed in a water bath at 37° C. The cell suspension is added dropwise to 20 mL of assay media, then the tube centrifuged at 1000 rpm for 4 minutes, the supernatant is discarded and the pellet re-suspended in 20 mL assay media. T47D cells are then plated at 8750 cells/well in 35 μL assay media in sufficient white solid 384 well TC plates for the assay. For the agonist format assay a further 10 μL of assay media is added to each well. These plates are then cultured for 3-6 hours at 37° C./5% CO2 before compound addition.
Compounds are prepared by in 100% DMSO, half log concentrations from 4 mM in 384 well plates 5 μL/well (referred to here as ‘grandmother plates’). Progesterone is 100 μM made up in ethanol and PBS (i.e. add 1 mL ethanol to progesterone initially to help dissolving) and stored in 0.5-1 mL aliquots at −20° C.
Using a multidrop (Thermolabsystems), 60 μL/well of buffer is added to a 384 well plate—this will be the ‘mother plate’. Add 45 μLwell buffer to grandmother plate using the multidrop (=400 μM 10% DMSO dilution). Mixed and spun to remove air bubbles.
20 μL is taken from the grandmother plate (400 μM 10% DMSO) and added to the mother plate (=100 μM 2.5% DMSO). Mixed and spun to remove air bubbles
The PlateMate Plus was used to add 5 μL MAX/MIN to cell plates
Then 5 μL compounds are added from the mother plate(after removing max/min Platemate tips: columns 1 and 24)
25 nM progesterone in assay media is prepared from 100 μM stock (12.5 μL progesterone/50 mL media), from which 10 μL per well is transferred to the assay plate using the Platemate Plus (already containing cells & compound).
The cell plates are incubated @ 37° C., 5% CO2 overnight (at least 16 hours). […]

SMILES	IC50 [nM]
Cc1cc(Oc2c(C3CC3)nn(C3CCOCC3)c2C2CC2)cc(C)c1C#N [Example 6, 4-[3,5-Dicyclopropyl-1-(tetrahydro-pyran-4-yl)-1H-pyrazol-4-yloxy]-2,6-dimethyl-benzonitrile]	56.3
Cc1cc(Oc2c(C3CC3)nn(C3CCOC3)c2C2CC2)cc(C)c1C#N (stereo not drawn) [Example 3, 4-[3,5-Dicyclopropyl-1-(tetrahydro-furan-3-yl)-1 H-pyrazol-4-yloxy]-2,6-dimethyl-benzonitrile]	67.4
Cc1cc(Oc2c(C3CC3)nn(C3CS(=O)(=O)C3)c2C)cc(C)c1C#N [Example 10, 4-(3-Cyclopropyl-5-methyl-1-(1,1-dioxo-thietan-3-yl)-1H-pyrazol-4-yloxy)-2,6-dimethyl-benzonitrile]	27.6
Cc1cc(Oc2c(C3CC3)nn(C3CS(=O)(=O)C3)c2C2CC2)cc(C)c1C#N [Example 2, 4-[3,5-Dicyclopropyl-1-(1,1-dioxo-thietan-3-yl)-1H-pyrazol-4-yloxy]-2,6-dimethyl-benzonitrile]	14.7
Cc1cc(Oc2c(C3CC3)nn(C3CCS(=O)(=O)C3)c2C2CC2)cc(C)c1C#N (single isomer, unassigned) [Example 8, 4-[3,5-Dicyclopropyl-1-(1,1-dioxo-tetrahydro-1λ^6-thiophen-3-yl)-1H-pyrazol-4-yloxy]-2,6-dimethyl-benzonitrile]	33.8
Cc1cc(Oc2c(C3CC3)nn(C3CCS(=O)(=O)CC3)c2C2CC2)cc(C)c1C#N [Example 5, 4-[3,5-Dicyclopropyl-1-(1,1-dioxo-hexahydro-1 λ^6-thiopyran-4-yl)-1H-pyrazol-4-yloxy]-2,6-dimethyl-benzonitrile]	91.3
Cc1cc(Oc2c(C3CC3)nn(C3CCS(=O)(=O)C3)c2C2CC2)cc(C)c1C#N (racemic) [Example 7, rac-4-[3,5-Dicyclopropyl-1-(1,1-dioxo-tetrahydro-1λ^6-thiophen-3-yl)-1H-pyrazol-4-yloxy]-2,6-dimethyl-benzonitrile]	13.8
Cc1cc(Oc2c(C3CC3)nn(C3COC3)c2C2CC2)cc(C)c1C#N [Example 1, 4-(3,5-Dicyclopropyl-1-oxetan-3-yl-1H-pyrazol-4-yloxy)-2,6-dimethyl-benzonitrile]	82.6
Cc1cc(Oc2c(C3CC3)nn(C3CCS(=O)(=O)C3)c2C2CC2)cc(C)c1C#N (single isomer, unassigned) [Example 9, 4-[3,5-Dicyclopropyl-1-(1,1-dioxo-tetrahydro-1λ^6*-thiophen-3-yl)-1H-pyrazol-4-yloxy]-2,6-dimethyl-benzonitrile]	25.9

The remaining lines, values ahead:

IC50 [nM]	SMILES
50.4	Cc1cc(Oc2c(C)nn(C3CS(=O)(=O)C3)c2C2CC2)cc(C)c1C#N [Example 11, 4-(3-Methyl-5-cyclopropyl-1-(1,1-dioxo-thietan-3-yl)-1H-pyrazol-4-yloxy)-2,6-dimethyl-benzonitrile]
133	Cc1cc(Oc2c(C)nn(C3CCS(=O)(=O)C3)c2C2CC2)cc(C)c1C#N (racemic) [Example 14, rac-4-[5-Cyclopropyl-1-(1,1-dioxo-tetrahydro-1λ^6-thiophen-3-yl)-3-methyl-1H-pyrazol-4-yloxy]-2,6-dimethyl-benzonitrile]
202	Cc1cc(Oc2c(C3CCC3)nn(C3CCS(=O)(=O)C3)c2C)cc(C)c1C#N (racemic) [Example 13, rac-4-[3-Cyclobutyl-1-(1,1-dioxo-tetrahydro-1λ^6-thiophen-3-yl)-5-methyl-1H-pyrazol-4-yloxy]-2,6-dimethyl-benzonitrile]
1490	Cc1cc(Oc2c(C)nn(C3CCS(=O)(=O)C3)c2C2CCC2)cc(C)c1C#N (racemic) [Example 12, rac-4-[5-Cyclobutyl-1-(1,1-dioxo-tetrahydro-1λ^6-thiophen-3-yl)-3-methyl-1H-pyrazol-4-yloxy]-2,6-dimethyl-benzonitrile]
108	Cc1cc(Oc2c(Cl)nn(C3CS(=O)(=O)C3)c2C2CC2)cc(C)c1C#N [Example 21, 4-[3-Chloro-5-cyclopropyl-1-(1,1-dioxo-1λ^6-thietan-3-yl)-1H-pyrazol-4-yloxy]-2,6-dimethyl-benzonitrile]
22	Cc1cc(Oc2c(C3CC3)nn(C3CS(=O)(=O)C3)c2Cl)cc(C)c1C#N [Example 20, 4-[5-Chloro-3-cyclopropyl-1-(1,1-dioxo-1λ^6-thietan-3-yl)-1H-pyrazol-4-yloxy]-2,6-dimethyl-benzonitrile]
